Reference: ChEMBL document CHEMBL1799932, “Antimalarial pyrido[1,2-a]benzimidazoles” (J Med Chem, 2011)

Key:
[1] = Selectivity index, ratio IC50 for rat L6 cells to IC50 for multidrug-resistant Plasmodium falciparum K1 infected in human red blood cells; type: functional
[2] = system: L6; experiment: Cytotoxicity at rat L6 cells after 72 hrs by microplate alamar blue assay; type: cell-based
[3] = Distribution coefficient, log D of the compound at pH 7.4; type: physicochemical; settings: octanol/water
[4] = system: Plasmodium falciparum; experiment: microbe, parasite or virus in culture; settings: K1
Description: (§1) Antimalarial activity against multidrug-resistant Plasmodium falciparum K1 infected in human red blood cells assessed as 3H-hypoxanthine incorporation after 48 hrs by liquid scintillation counting

[5] = system: Plasmodium falciparum; experiment: microbe, parasite or virus in culture; settings: HB3
Description: Antimalarial activity against Plasmodium falciparum HB3

[6] = system: Plasmodium falciparum; experiment: microbe, parasite or virus in culture; settings: FCR-3/Gambia
Description: Antimalarial activity against Plasmodium falciparum FCR3

[7] = system: Plasmodium falciparum; experiment: microbe, parasite or virus in culture; settings: Mad20/Papua New Guinea
Description: Antimalarial activity against Plasmodium falciparum Mad20

[8] = system: Plasmodium falciparum; experiment: microbe, parasite or virus in culture; settings: NF54
Description: Antimalarial activity against Plasmodium falciparum NF54

[9] = system: Plasmodium falciparum; experiment: microbe, parasite or virus in culture; settings: FC27/Papua New Guinea
Description: Antimalarial activity against Plasmodium falciparum FC27

[10] = Metabolic stability in mouse liver microsomes assessed as intrinsic clearance per mg protein after 60 mins by LC-MS analysis; type: ADME, Microsome
[11] = Metabolic stability in human liver microsomes assessed as intrinsic clearance per mg protein after 60 mins by LC-MS analysis; type: ADME, Microsome
[12] = Metabolic stability in rat liver microsomes assessed as intrinsic clearance per mg protein after 60 mins by LC-MS analysis; type: ADME, Microsome
[13] = Metabolic stability in human liver microsomes assessed as degradation half life after 60 mins by LC-MS analysis; type: ADME, Microsome
[14] = Metabolic stability in rat liver microsomes assessed as degradation half life after 60 mins by LC-MS analysis; type: ADME, Microsome
[15] = Metabolic stability in mouse liver microsomes assessed as degradation half life after 60 mins by LC-MS analysis; type: ADME, Microsome
[16] = system: Plasmodium berghei; experiment: Antimalarial activity against GFP-transfected Plasmodium berghei strain ANKA infected in NMRI mouse assessed as reduction in parasitemia at 50 mg/kg/day, ip administered for 4 consecutive days measured 24 hrs after last treatment by FACS analysis relative to control; type: functional; parameters: scale not given: the % may be the effect or the level left; settings: route intraperitoneal
[17] = system: Plasmodium falciparum
Description: as §1

[18] = system: Plasmodium falciparum; experiment: microbe, parasite or virus in culture; settings: K1; remark: listed apart in the source
Description: Antimalarial activity against Plasmodium falciparum K1

Compound	Ratio IC50 [1]	IC50 ([2]; Rattus norvegicus, L6, 72 h)	logD [3]	IC50 [4]	also measured
CN(C)CCCNc1cc(-c2ccc(C(F)(F)F)cc2)c(C#N)c2nc3ccccc3n12	455	> 200 µM	2.49	0.44 µM	
N#Cc1c(-c2ccc(C(F)(F)F)cc2)cc(NCCCN2CCOCC2)n2c1nc1ccccc12	80.6	98.3 µM	3.79	1.22 µM	
CCN(CC)CCCNc1cc(-c2ccccc2)c(C#N)c2nc3ccccc3n12	>150	> 230 µM	2	1.53 µM	
C[C@@H]1CC[C@H]2[C@@H](C)C(=O)O[C@@H]3O[C@@]4(C)CC[C@@H]1[C@]32OO4 [ARTEMISININ]				0.006 µM	IC50 [5]: 0.003 µM; IC50 [6]: 0.005 µM; IC50 [7]: 0.008 µM
CCN(CC)CCNc1cc(-c2cccc(C(F)(F)F)c2)c(C#N)c2nc3ccccc3n12	243	102 µM	2.94	0.42 µM	
OC(c1cc(C(F)(F)F)nc2c(C(F)(F)F)cccc12)C1CCCCN1 (stereo not drawn) [MEFLOQUINE]					IC50 [8]: 0.013 µM; IC50 [9]: < 0.04 µM; IC50 [7]: 0.013 µM
CN(C)CCNc1cc(-c2ccccc2)c(C#N)c2nc3ccccc3n12	>50	> 80 µM	1.48	1.49 µM	
Cl.N#Cc1c(-c2ccc(C(F)(F)F)cc2)cc(NCCN2CCOCC2)n2c1nc1ccccc12					microsomal CLint [10]: 65.2 µL/min/mg; microsomal CLint [11]: 109 µL/min/mg; microsomal CLint [12]: 108 µL/min/mg; half-life [13]: 15.9 min; half-life [14]: 16 min; half-life [15]: 26.6 min
CCN(CC)CCCNc1cc(C(F)(F)F)c(C#N)c2nc3ccccc3n12	42.2	87.8 µM	2.54	2.08 µM	
Cl.N#Cc1c(-c2ccc(C(F)(F)F)cc2)cc(NCCCN2CCOCC2)n2c1nc1ccccc12					microsomal CLint [10]: 87 µL/min/mg; microsomal CLint [11]: 166 µL/min/mg; microsomal CLint [12]: 234 µL/min/mg; half-life [13]: 10.4 min; half-life [14]: 7.4 min; half-life [15]: 19.9 min
CCN(CC)CCCNc1cc(-c2ccc(F)cc2)c(C#N)c2nc3ccccc3n12	122	86.6 µM	1.93	0.71 µM	
CCN(CC)CCNc1cc(-c2ccc(Cl)cc2)c(C#N)c2nc3ccccc3n12	683	41 µM	2.54	0.06 µM	
CN(C)CCNc1cc(-c2cccc(C(F)(F)F)c2)c(C#N)c2nc3ccccc3n12	24.6	7.14 µM	2.45	0.29 µM	
CN(C)CCCNc1cc(-c2cccc(C(F)(F)F)c2)c(C#N)c2nc3ccccc3n12.Cl.Cl					IC50 ([2]; l6): 19.2 µM; Activity [16]: 0%; IC50 [17]: 0.49 µM
CN(C)CCNc1cc(-c2ccc(Cl)cc2)c(C#N)c2nc3ccccc3n12	62.9	19.5 µM	2.05	0.31 µM	
COc1cc([C@@H]2c3cc4c(cc3[C@H](O)[C@H]3COC(=O)[C@H]23)OCO4)cc(OC)c1OC [PODOFILOX]		0.009 µM			
N#Cc1c(C(F)(F)F)cc(NCCN)n2c1nc1ccccc12	13	40.1 µM	1.37	3.09 µM	
N#Cc1c(-c2ccc(C(F)(F)F)cc2)cc(NCCN2CCCCC2)n2c1nc1ccccc12	3581	193 µM	3.78	0.054 µM	
N#Cc1c(-c2cccc(C(F)(F)F)c2)cc(NCCN)n2c1nc1ccccc12	11.7	11.7 µM	1.8	1 µM	
CCN(CC)CCNc1cc(-c2ccc(F)cc2)c(C#N)c2nc3ccccc3n12	226	56.5 µM	1.9	0.25 µM	
CCNCCN(CC)c1cc(-c2ccc(C(F)(F)F)cc2)c(C#N)c2nc3ccccc3n12	22.9	21.5 µM	3.52	0.94 µM	
CN(C)CCNc1cc(-c2ccc(F)cc2)c(C#N)c2nc3ccccc3n12	70	19.6 µM	1.41	0.28 µM	
CN(C)CCCNc1cc(-c2ccccc2)c(C#N)c2nc3ccccc3n12	71	108 µM	1.52	1.52 µM	
N#Cc1c(-c2ccc(C(F)(F)F)cc2)cc(NCCCN)n2c1nc1ccccc12	6.8	6.26 µM	1.46	0.92 µM	
CCCc1cc(N2CCN(Cc3ccc(F)cc3)CC2)n2c(nc3ccccc32)c1C#N					IC50 [8]: 0.053 µM; IC50 [18]: 0.023 µM

Compound	Ratio IC50 [1]	IC50 ([2]; Rattus norvegicus, L6, 72 h)	logD [3]	IC50 [4]	also measured
CN(C)CCCNc1cc(-c2ccc(Cl)cc2)c(C#N)c2nc3ccccc3n12	>1000	> 210 µM	2.09	0.21 µM	
N#Cc1c(-c2ccc(C(F)(F)F)cc2)cc(NCCN2CCCC2)n2c1nc1ccccc12	2751	146 µM	2.58	0.053 µM	
CCN(CC)CCCNc1cc(-c2cccc(C(F)(F)F)c2)c(C#N)c2nc3ccccc3n12	128		2.97	0.19 µM	IC50 ([2]; l6): 24.3 µM
CN(C)CCCNc1cc(-c2cccc(F)c2)c(C#N)c2nc3ccccc3n12	29	15.4 µM	1.54	0.53 µM	
Cc1cc(N2CCN(Cc3ccccc3)CC2)n2c(nc3ccccc32)c1C#N					IC50 [8]: 0.052 µM; IC50 [18]: 0.05 µM
N#Cc1c(-c2ccc(C(F)(F)F)cc2)cc(NCCN)n2c1nc1ccccc12	3.4	5.11 µM	1.8	1.49 µM	
CN(C)CCNc1cc(-c2ccc(C(F)(F)F)cc2)c(C#N)c2nc3ccccc3n12	>1600	> 210 µM	2.45	0.13 µM	
CCN(CC)CCNc1cc(C(F)(F)F)c(C#N)c2nc3ccccc3n12	63.7	121 µM	2.51	1.9 µM	
CN(C)CCNc1cc(-c2cccc(F)c2)c(C#N)c2nc3ccccc3n12	7	5.88 µM	1.5	0.84 µM	
CN(C)CCCNc1cc(-c2cccc(C(F)(F)F)c2)c(C#N)c2nc3ccccc3n12	474	180 µM	2.49	0.38 µM	
CCN(CC)CCCNc1cc(-c2ccc(Cl)cc2)c(C#N)c2nc3ccccc3n12	287	48.8 µM	2.57	0.17 µM	
CN(C)CCCNc1cc(-c2ccc(C(F)(F)F)cc2)c(C#N)c2nc3ccccc3n12.Cl.Cl					IC50 ([2]; l6): 21.1 µM; Activity [16]: 30.7%; IC50 [17]: 0.26 µM
N#Cc1c(-c2cccc(C(F)(F)F)c2)cc(NCCCN)n2c1nc1ccccc12	6.9	4.33 µM	1.46	0.63 µM	
CN(C)CCCNc1cc(-c2ccc(F)cc2)c(C#N)c2nc3ccccc3n12	43	11.6 µM	1.45	0.27 µM	
CCN(CC)CCCNc1cc(-c2cccc(F)c2)c(C#N)c2nc3ccccc3n12	121	55.7 µM	2.02	0.46 µM	
CN(C)CCCNc1cc(C(F)(F)F)c(C#N)c2nc3ccccc3n12	52.5	166 µM	2.06	3.16 µM	
CN(C)CCNc1cc(C(F)(F)F)c(C#N)c2nc3ccccc3n12	13	44.7 µM	2.01	3.43 µM	
N#Cc1c(-c2ccccc2)cc(NCCCN)n2c1nc1ccccc12	5.2	11.9 µM	0.49	2.27 µM	
N#Cc1c(-c2ccc(C(F)(F)F)cc2)cc(NCCN2CCOCC2)n2c1nc1ccccc12	68	33.3 µM	3.72	0.49 µM	
CCN(CC)CCNc1cc(-c2cccc(F)c2)c(C#N)c2nc3ccccc3n12	225	124 µM	1.99	0.55 µM	
CCN(CC)CCCNc1cc(-c2cccc(C(F)(F)F)c2)c(C#N)c2nc3ccccc3n12.Cl.Cl					IC50 ([2]; l6): 11.8 µM; Activity [16]: 0%; IC50 [17]: 0.25 µM
CN(C)CCNc1cc(-c2ccc(C(F)(F)F)cc2)c(C#N)c2nc3ccccc3n12.Cl					IC50 ([2]; l6): 147 µM; Activity [16]: 0%; IC50 [17]: 0.1 µM
CCN(CC)CCCNc1cc(-c2ccc(C(F)(F)F)cc2)c(C#N)c2nc3ccccc3n12	>633		2.97	0.3 µM	IC50 ([2]; l6): > 190 µM
CCN(CC)CCNc1cc(-c2ccccc2)c(C#N)c2nc3ccccc3n12	108	120 µM	1.89	1.11 µM	
